This is an account of results in patent US20170064966A1, “ANTIMICROBIAL COMPOSITIONS AND METHODS AND USES THEREOF” (BAR ILAN UNIVERSITY, priority 2015, published 2017).

Broadly, the Kd is a measure of binding affinity in units of concentration.

Where two headings read alike, the source gives them in different places. Non-standard residues stand in square brackets, D forms with d. No end group written: not given here.

One assay relates to PA biofilm formation. The assay is described as follows: Static biofilm model with N′-loop derived peptides (crystal violet). As to conditions: for anti-biofilm activity / inhibition of PA biofilm formation: peptides 1-6 at 0.01, 0.05 and 0.1 mM, FIG. 10B.
For assay [1], the system named is P. aeruginosa strains PAO1, PA14 and clinical isolate DK2. The assay is described as follows: Flow cell biofilm experiment in the presence of inhibitory peptide.
Protocol: Bacterial strains (Pseudomonas aeruginosa strains PA14 and DK2) containing the plasmid pUCP-GFP inserted to bacterial cells by electroporation (pUCP18 that constitutionally expresses the GFP under the lac promoter), were inoculated from −80° C. stock into 2 mL TSB containing 300 μg/mL Carb (to maintain the pUCP-GFP plasmid) and grown overnight at 37° C. with agitation. The next day, bacteria were diluted to 0.05 OD (595 nm) in 1% TSB containing the antibiotics and loaded onto 6 channel 1μ-Slide I^0.4 Luer uncoated (Ibidi). The slide was connected to a flow cell containing fresh 1% TSB with 0.05 Mm, 0.1 mM peptides or without peptides. Fresh media flowed through the slide by a pump at 10 mL/h (2 rpm). Bacteria were grown in the slide for 48 hours at 37° C. After 48 hours, 3 representative pictures from the beginning and the middle of the slide, were taken using SP8 confocal HyD microscope (Leica). Pictures were analyzed by Imaris software (version 7.2.2).
For assay [2] the following is noted: measured under similar pH conditions, ref (18); read-out: phosphate binding (KD) reported for PstS orthologs; cited from earlier work.
Assay [3] is classed as binding. Particulars: P^32-labeled phosphate, pH 7.5, FIG. 3C.

Protocol for PA biofilm formation: The static biofilm model was used to assess the ability of N′-loop derived peptides to reduce PA biofilm formation. Briefly, PA wild type bacteria were grown over night in M9 medium (20 mM NH4Cl; 12 mM Na2HPO4; 22 mM KH2PO4; 8.6 mM NaCl; 1 mM MgSO4; 1 mM CaCl2; 11 mM Dextrose) at 37 C. Following growth cells were diluted to a final concentration of 5*10^7 in M9 medium contacting 1/10 the phosphate concentration. 100 microliter of the bacterial suspension was transferred to each well of 96 wells plate. The six tested peptides were added at different concentrations 0.01, 0.05 and 0.1 mM. The plate was then incubated for 24 h at 37° C. to allow biofilm development. After incubation the medium was removed and the wells were carefully washed twice with sterile ddsH2O to remove planktonic bacteria. Next 150 microliter of 1% crystal violet (w/v) was added to each well in order to stain the biofilm cells. The stain was allowed to incubate for 15 min after which the wells were washed again with ddsH2O. The stain attached to the biofilm was then extracted by adding 200 microliter ethanol (95%). The biofilm biomass was quantified by reading the absorbance at 595nm using an ELISA plate reader.

AIDPALPE: the “anti-biofilm activity / inhibition of PA biofilm formation” value in the assay with PA biofilm formation is reported as “inhibits most effectively biofilm formation”; in the assay on PA biofilm formation (listed as peptide 3), “most effective peptide”. On to “modified peptide-3: enantiomer of peptide-3 having the N-terminal Ala and C-terminal Glu residues in the D-form (SEQ ID NO. 56) ([dA]IDPALP[dE])”, for which the “biofilm formation (biovolume)” value in assay [1] (0.1 mM in media, 48 h, strains PAO1, PA14, DK2, FIG. 11A) was “significantly reduces the biofilm formation”. Also, the “biofilm formation phenotype, confocal microscope images” value in assay [1] (strains PAO1, PA14, DK2, 48 h, FIG. 11B) is listed as “changes the biofilm formation phenotype of all PA strains examined”. Also, the “inhibition of PA biofilm formation” value in the assay on PA biofilm formation (0.1 millimolar modified peptide 3, FIG. 10C) was “efficiently inhibited biofilm formation”.

B1: E. coli PstS: PstS ortholog from E. coli, literature value (18) (protein, UniProt P0AG82 26-346, looked up)
Phosphate-binding protein PstS: EASLTGAGATFPAPVYAKWADTYQKETGNKVNYQGIGSSGGVKQIIANTVDFGASDAPLSDEKLAQEGLFQFPTVIGGVVLAVNIPGLKSGELVLDGKTLGDIYLGKIKKWDDEAIAKLNPGLKLPSQNIAVVRRADGSGTSFVFTSYLAKVNEEWKNNVGTGSTVKWPIGLGGKGNDGIAAFVQRLPGAIGYVEYAYAKQNNLAYTKLISADGKPVSPTEENFANAAKGADWSKTFAQDLTNQKGEDAWPITSTTFILIHKDQKKPEQGTEVLKFFDWAYKTGAKQANDLDYASLPDSVVEQVRAAWKTNIKDSSGKPLY
Take B1: the Kd in assay [2] was approximately 3000 nM.

B2: wild-type PstS: periplasmic phosphate-binding subunit of the P. aeruginosa Pst transporter, purified from E. coli (protein)
chain: MKLKRLMAALTFVAAGVGAASAVAAIDPALPEYQKASGVSGNLSSVGSDTLANLMTMWAEEYKRLYPNVNIQIQAAGSSTAPPALTEGTANLGPMSRKMKDVELQAFEQKYGYKPTAVPVAVDALAIFVHKDNPIKGLTMQQVDAIFSATRLCGSKQDVKTWGDLGLTGDWAKKPVQLFGRNSVSGTYGYFKEEALCKGDFRPNVNEQPGSASVVQSVSQSLNGIGYSGIGYKTASVKTVALAKKEGAAFVEDNEQNALNGTYPLSRFLYVYVNKAPNKPLDPLEAQFLKLVLSKTGQQVVVKDGYIPLPAKVAEKAIKELGL
modifications: P.aeruginosa PstS - accession number NP_254056.1
Regarding B2, the Kd in assay [3] (read-out: dissociation constant (KD) for PO4) was 840 ± 120 nM.

B3: S96E (protein)
chain: MKLKRLMAALTFVAAGVGAASAVAAIDPALPEYQKASGVSGNLSSVGSDTLANLMTMWAEEYKRLYPNVNIQIQAAGSSTAPPALTEGTANLGPMERKMKDVELQAFEQKYGYKPTAVPVAVDALAIFVHKDNPIKGLTMQQVDAIFSATRLCGSKQDVKTWGDLGLTGDWAKKPVQLFGRNSVSGTYGYFKEEALCKGDFRPNVNEQPGSASVVQSVSQSLNGIGYSGIGYKTASVKTVALAKKEGAAFVEDNEQNALNGTYPLSRFLYVYVNKAPNKPLDPLEAQFLKLVLSKTGQQVVVKDGYIPLPAKVAEKAIKELGL
modifications: The S96E PstS mutant
With B3, the “dissociation constant (KD) for PO4” value in assay [3] is “very weak or no binding”.
